Measurements taken from US20050124632A1, “Remedies and/or preventives for diabetic ischemic heart diseases” (priority 2001, published 2005).

Key:
[1] = system: Ca leakage from sarcoplasmic reticulum; experiment: Ca leakage from sarcoplasmic reticulum in saponin-skinned papillary muscle fiber preparations (caffeine-induced tension as index); type: cell-based, Wistar rats; details: MCC-135 10^-7 M to 10^-5 M, skinned fiber preparation
Experimental: Diabetic cardiomyopathy was induced in 7-week old Wistar rats by an intravenous injection of 40 mg/kg of Streptozotocin via each tail (purchased from Sigma, hereinafter may be referred to as “STZ”) (J. Exp. Med., 1979, 149: 623-631). Since a severe cardiac dysfunction is observed 5 to 6 months after the administration of STZ (Malone, J. I., Schocken, D. D., Morrison, A. D., Gilbert-Barness, E., Diabetic cardiomyopathy and carnitine deficiency. J-Diabetes-Complications. 1999, 13(2): 86-90), the rats were subjected to the experiments 7 months after the administration of STZ. The rats were sacrificed and the hearts of the rats were isolated 7 months after the administration of STZ. The following experiment was conducted according to the method of Kitada et al. (J. Pharmacol. Exp. Ther. 1987, 243: 633-638). Skinned fiber preparations were prepared by saponin treatments of papillary muscles of the hearts isolated from the rats 7 months after the administration of STZ and the control rats. A medium for the preparations was changed from Ca (calcium ion) free buffer solution to a solution of pCa 6.7 to have sarcoplasmic reticulum uptake a certain amount of Ca in the presence of ATP. […]

[2] = system: contractile protein system; experiment: Relation between Ca concentration and contractile force in saponin-skinned papillary muscle fibers under acidosis (pH 6.6); type: cell-based, Wistar rats; details: for Hill n / Maximum Force / PCa50 / Resting Force: acidosis (pH6.6) + 1 μM MCC-135
Experimental: Diabetic cardiomyopathy model is prepared in a similar manner to that in Example 1. The rats 7 months after the administration of STZ were subjected to the experiments in a similar manner to that in Example 1. The rats were sacrificed and the hearts of the rats were isolated 7 months after the administration of STZ. The following experiment was conducted according to the method of Kitada et al. which is the same as that in the Example 1. Left ventricular papillary muscles were cut off from the isolated heart in an ice cooled Krebs-Henseleit solution, and contraction-relaxation function of the papillary muscles was measured by Magnus method. Some of the papillary muscles were applied to a functional analysis on a relation between various calcium ion (Ca) concentrations and contractile force by skinned fiber method with saponin treatment. Acidosis was induced by lowering the pH of the solution from 7.0 in normal to 6.6. A mode of change of relation between the various calcium ion (Ca) concentrations and the contractile forces in the presence or absence of MCC-135 was studied.

Cc1ccc(N2CCNCC2)c(S(=O)(=O)O)c1.O [MCC-135, 5-methyl-2-(1-piperazinyl)benzenesulfonic acid monohydrate]
effect on Ca leakage from sarcoplasmic reticulum ([1]; normal rats): had no effect
effect on Ca leakage from sarcoplasmic reticulum ([1]; rats with diabetic cardiomyopathy (STZ, 7 months)): inhibited Ca leakage from the sarcoplasmic reticulum with diabetic cardiomyopathy in a concentration-dependant manner
effect on the action of acidosis on cardiac muscle ([2]; diabetic cardiomyopathy): blocked the action of acidosis in the diabetic cardiomyopathy
effect on the action of acidosis on cardiac muscle ([2]; normal hearts): had no effect on the action of acidosis on the normal hearts
Hill n ([2]; normal rat): 3.17 ± 0.42
Maximum Force ([2]; normal rat): 0.371 ± 0.027 mN/mm^2
PCa50 ([2]; normal rat): 5.43 ± 0.01
Resting Force ([2]; normal rat): 0 ± 0 n.s mN/mm^2
Hill n ([2]; rat with cardiomyopathy): 2.12 ± 0.20
Maximum Force ([2]; rat with cardiomyopathy): 0.286 ± 0.020**, *** mN/mm^2
PCa50 ([2]; rat with cardiomyopathy): 5.55 ± 0.07
Resting Force ([2]; rat with cardiomyopathy): 0.000 ± 0.000**, *** mN/mm^2
